Results taken from patent US20090081170A1, “Cardiac progenitor cells” (priority 2007, published 2009).

Legend:
[1] = system: adult heart explants (adult EPDCs); experiment: Adult epicardial explant culture: EPDC outgrowth and differentiation; format: cell-based, mouse
Experimental: A simple protocol for the outgrowth and differentiation of vasculogenic precursor cells (endothelial and vascular smooth muscle cells) from adult heart using Thymosin β4 to stimulate epicardial cell migration is described below.
• 1. Coat 6-well plates with gelatin: pipette 2 ml 0.1% gelatin solution, allow to stand for 15 minutes and aspirate. Optionally, place coverslips into wells, prior to gelatin coating. • 2. Cull adult mouse by cervical dislocation. • 3. Using sterile forceps and scissors make a lateral incision in the centre of the abdomen and tear back the fur to expose the rib cage. • 4. Carefully cut upwards through the sternum and along the diaphragm, taking care not to cut into the heart. Pull back the ribs to reveal the heart. • 5. Remove the heart using forceps and dissect away the atria and major vessels, to leave right and left ventricles. • 6. Place tissue in a 60 mm tissue culture dish (non gelatin coated) containing 2 ml DPBS. Cut into quarters and allow blood to rinse from the tissue. Carefully aspirate away DPBS. Using a sterile scalpel, cut the heart into pieces of approximately 1 mm^3. Reproducible EPDC outgrowth strongly depends upon the size of the heart pieces (optimally 1 mm^3). Larger pieces will not adhere to permit sufficient migration while smaller pieces tend to dissociate completely and cardiomyocyte death precedes adherence and EPDC outgrowth. • 7. Divide heart pieces into 4 equal portions (1 adult heart is typically divided between 4 wells for optimal EPDC outgrowth). • 8. Pipette 2 ml of EPDC culture medium, supplemented with 100 ng/ml Tβ4, into each well to be used. • 9. Place 1 portion of heart tissue into the centre of each well and ensure that all pieces are submerged. • 10. Gently transfer the plate to a humidified 5% CO2 37° C. incubator. Maintain cultures with minimum disturbance to allow explants to adhere. No feeding is required for the first 72 hours. Minimal disturbance is absolutely essential for EPDC outgrowth. Explants adhere only tenuously in the first instance and disturbance in the first few days of culture will prevent adhesion or lead to detachment. Plates should be transferred extremely cautiously between incubator and microscope or culture hood. After sufficient EPDCs have emerged, explants attach more firmly but care is still required as detachment may easily occur. • 11. After 72 hours in culture, carefully transfer plate to culture hood, wash explants gently with DPBS and add 2 ml fresh EPDC medium containing 100 ng/ml Tβ4. Leave for a further 24 hours before assessment of cellular phenotype.
• 1. Culture adult heart explants as described above. • 2. After 72 hours of culture, fix cells with 4% PFA for 10 minutes at room temperature. • 3. Wash cells twice with PBS. • 4. Permeabilise cells with 0.5% Triton X-100 in PBS for 5 minutes at room temperature. • 5. Wash cells twice with PBS. • 6. Block non-specific binding by incubating cells in BLOCK (1% BSA/10% sheep serum in PBS) for 1 hour at room temperature. • 7. Incubate cells with an appropriate dilution of primary antibody (epicardin, 1:100; SMalphaA, 1:700; Flk1, 1:100), or Procollagen type I, 1:100), in BLOCK. • 8. Wash cells 3 times using BLOCK. • 9. Incubate cells with the appropriate secondary antibody (epicardin: Cy3-conjugated anti-rabbit; SMalphaA: FITC-conjugated anti-mouse, 1:30; Procollagen type I: Alexa 488-conjugated anti-goat, 1:200; Flk1: Alexa 594-conjugated anti-rat, 1:200) diluted in BLOCK. • 10. Wash cells twice in PBS. • 11. Optionally, to stain nuclei, incubate with 5 ug/ml Hoechst in PBS for 5 minutes at room temperature. • 12. Wash cells twice in PBS. • 13. Mount coverslips onto microscope slides using 50% glycerol in PBS as mountant and visualize using a fluorescence microscope. […]

[2] = system: adult intact mouse hearts; experiment: Gain of function model: Tβ4 administration to intact adult mice (western, immunofluorescence, perfused vessel counts); format: in vivo
Experimental: For in vivo studies, Western blotting, immunofluorescence and immunohistochemistry were performed using standard protocols with the following antibodies: Ki67 (Dako Cytomation), SMαA, sarcomeric α-actinin (Sigma), cardiac myosin binding protein C (E. Ehler), CD31/PECAM-1, CD4, CD8b (all BD Pharmingen), Nkx2.5, VEGF, Tie-2 (all Santa Cruz), GAPDH, Tbx18 (both Chemicon), Isl-1 (clone 39.4D5, Developmental Studies Hybridoma Bank), Tbx18, TNFα, IL-6, IL-10, GFP (full length—detects EYFP), MCP1, cTnT, F4/80, CD45, MPO, (all abcam), Living colours Av peptide, polyclonal and mouse monoclonal JL-8 antibodies (detect EYFP, Clontech) Cx43 (Zymed) and Raldh2 (gift of P. McCaffery). Images were acquired using either a Zeiss Axiolmager with ApoTome or a Zeiss LSM 510 confocal microscope equipped with argon and helium neon lasers using a 63×/1.4 lens.
Wild type (WT) C57B1/6 or Cx40-EGFP [46] male mice (25-30 g) received intraperitoneal injection of Tβ4 (150 μg in 0.1 ml PBS) or vehicle (0.1 ml PBS) every 2 days for up to 1 week or every 3 days for up to 4 weeks. Doses were based on previous studies. WT hearts were harvested after 2, 4, 7, 14 and 28 days and bisected transversely; the apex was snap frozen for protein preparation and the remaining tissue was fixed in 4% PFA for 2 hours for cryosectioning. Cx40-EGFP hearts were harvested after 7, 14 and 28 days and fixed, as above, for cryosectioning. Prior to harvest at the 28 d time point, Cx40-EGFP mice were intravenously injected with rhodamine-conjugated dextran (70 kDa, Invitrogen) at 2 mg per 20 g body weight, to assess coronary vessel perfusion.
The minimum requirement for Tβ4 to promote EPDC-derived vascular endothelial and smooth muscle cells, was reported previously. To investigate whether Tβ4 could stimulate new vessel growth in vivo, we established a gain of function mouse model by intraperitoneal injection of Tβ4 or vehicle (injections of 150 μg in 0.1 ml PBS every 2 days for first 4 days and every 3 days thereafter) into wild type 8 week old adult mice. Hearts were examined by western analysis and immunohistochemistry (IHC) for vascular markers and evidence of new coronaries at 2, 4, 7, 14 and 28 days post-treatment.
We next determined the presence of adult EPDC-derived cardiomyocytes in vivo, in both a gain of function (intact heart) mouse model, established by intraperitoneal injection of Tβ4 or vehicle (PBS) into wild type adult mice, and an injury model of myocardial infarctions (by coronary artery ligation) in adult mice (n=27 MIs in total), treated with either Tβ4

[3] = intact heart, 2 days of treatment
[4] = intact heart, days 2-7 of treatment, 150 μg i.p.

Q: How did the “percentage incidence of myocardial progenitors (cells positive for Isl-1/Nkx2.5/Gata4)” value ([1]; Gata5-EYFP lineage trace explant cultures, mean +/− SEM, n=12 explants) turn out when Thymosin β4 [Tβ4] was run?
A: 5.3+/−1.9%

Q: And the “EPDCs positive for Tbx18 and Raldh2” value ([1]; adult epicardial explants, immunofluorescence)?
A: significant number of proliferative, migrating EPDCs positive for Tbx18 and Raldh2

Q: What about the “differentiation of emerging epicardin-positive cells” value ([1]; adult explants, immunofluorescence) of the same substance?
A: differentiated with migration into procollagen type I—, SMαA- and Flk1 (VEGF receptor)-positive cells

Q: What about the “EPDC outgrowth from adult heart explants” value ([1]; adult mouse heart explants, 8-12 weeks, vs untreated explants) of the same substance?
A: stimulated extensive outgrowth of cells

Q: And the “increase in numbers of perfused coronary vessels vs controls” value ([2]; Cx40-EGFP mice, rhodamine-dextran, 28 days of treatment)?
A: 1.2 fold

Q: What about the “number of perfused vessels per section +/−SEM” value ([2]; Cx40-EGFP mice, rhodamine-dextran, 28 days of treatment, n=3) of the same substance?
A: 70.7+/−3.62

Q: What about the “Raldh2 up-regulation vs vehicle (western)” value ([2]; gain of function, intact heart) of the same substance?
A: 6.3 fold

Q: What about the “Tbx18 up-regulation vs vehicle (western)” value ([2]; gain of function, intact heart) of the same substance?
A: 5.3 fold

Q: What about the “phospho-histone H3 (P-HH3) elevated levels (proliferation)” value ([2]; intact heart) of the same substance?
A: 9.1 fold

Q: And the “PECAM increase vs controls (western)” value [2, 3]?
A: 9.3 fold

Q: What about the “SMαA increase vs controls (western)” value [2, 3] of the same substance?
A: 9.8 fold

Q: And the “Tie2 increase vs controls (western)” value [2, 3]?
A: 2 fold

Q: What about the “VEGF increase vs controls (western)” value [2, 3] of the same substance?
A: 4.8 fold

Q: What about the “Isl-1 up-regulation vs vehicle (western)” value [2, 4] of the same substance?
A: 4.3 fold

Q: What about the “Nkx2.5 up-regulation vs vehicle (western)” value [2, 4] of the same substance?
A: 2.7 fold
